From ChEMBL document CHEMBL1154131, “Bioactive diterpenes and other constituents of Croton steenkampianus” (J Nat Prod, 2008)
≈ marks a conversion by molar mass, not a printed value.

How the values were obtained:
[1] = system: Vero; assay: Cytotoxicity against african green monkey Vero cells by MTT assay; format: cell-based; conditions: Chlorocebus sabaeus
[2] = system: Plasmodium falciparum; assay: Antiplasmodial activity against chloroquine-resistant Plasmodium falciparum Dd2; format: functional, organism-based
[3] = system: Plasmodium falciparum; assay: Antiplasmodial activity against chloroquine-susceptible Plasmodium falciparum D10; format: functional, organism-based

Structure (SMILES)	IC50 [1]	IC50 [2]	IC50 [3]
CCN(CC)CCCC(C)Nc1ccnc2cc(Cl)ccc12 (stereo not given) [CHLOROQUINE]	48.5 µg/mL (≈ 152 µM)	–	–
O=c1c(O)c(-c2ccc(O)c(O)c2)oc2cc(O)cc(O)c12 [QUERCETIN]	110 µg/mL (≈ 364 µM)	2.4 µg/mL (≈ 7.94 µM)	–
COc1ccc(-c2oc3cc(O)cc(O)c3c(=O)c2O)cc1O [TAMARIXETIN]	170 µg/mL (≈ 538 µM)	–	1.1 µg/mL (≈ 3.48 µM)
